Among the data in ChEMBL document CHEMBL1129757 (J Med Chem, 1996) are Ki values, retold here.

The target of one assay is T1, Melatonin receptor (Gallus gallus, UniProt P49288+P51050+P49285). The experiment in a line: Binding affinity towards melatonin receptor in Chicken brain Experiment 2.
The Ki is the dissociation constant of the complex between target and ligand, obtained from inhibition or displacement. Low values mean tighter binding, high ones weaker binding. With `COc1ccc(CCNC(C)=O)cc1`, the Ki was > 1000 nM.

A further assay concerns the target T1, Melatonin receptor. The experiment in a line: Binding affinity towards melatonin receptor in Chicken brain Experiment 1.
`COc1cccc(CCNC(C)=O)c1` came in with a Ki of 958 nM.

On to `COc1ccc(CCNC(C)=O)cc1`, for which the Ki is > 100000 nM.

In the next assay the target is T1, Melatonin receptor. Briefly: Binding affinity towards melatonin receptor in chicken brain.
The compound `CCC(=O)NCCCc1cccc(OC)c1` gave a Ki of 5.6 nM.

The compound `CC(=O)NCCCc1cccc(Cl)c1` returned a Ki of 636 nM.

Take `CCCCC(=O)NCCCc1ccccc1OC`: the Ki was > 100000 nM.

Take `CCCCC(=O)NCCCCc1ccc(OC)cc1`: the Ki is 7000 nM.

In turn, `CCCC(=O)NCCc1ccccc1OC` returned a Ki of 69 nM.

In the case of `CCCC(=O)NCCCc1cccc(F)c1`, the Ki is recorded as 434 nM.

`COc1cccc(CCCNC(C)=O)c1` yielded a Ki of 63 nM.

Compound `CCC(=O)NCCc1ccc(OC)cc1` returned a Ki of 19200 nM.

`CCCCC(=O)NCCCCc1cccc(OC)c1`: the Ki is listed as 9670 nM.

As to `CCCCC(=O)NCCc1ccccc1OC`, the Ki is on record as 16000 nM.

The compound `CC(=O)NCCCc1cccc(F)c1` came in with a Ki of 1920 nM.

As for `CCCC(=O)NCCCc1cccc(Br)c1`, the Ki is listed as 354 nM.

In turn, `COc1ccccc1CCCNC(C)=O` returned a Ki of 1430 nM.

With `CCCC(=O)NCc1cccc(OC)c1`, the Ki came out at 13000 nM.

`CCC(=O)NCCCc1ccc(OC)cc1` had a Ki of 2900 nM.

The compound `COc1ccc(CCCNC(C)=O)cc1` yielded a Ki of 14000 nM.

The compound `COc1ccccc1CCNC(C)=O` displayed a Ki of 573 nM.

The compound `CCC(=O)NCCc1ccc(OC)c(OC)c1` displayed a Ki of 130 nM.

`COc1ccc(Br)cc1CCN` came in with a Ki of 8 nM.

In turn, `COc1cccc(CNC(C)=O)c1` gave a Ki of 57000 nM.

Take `CCCC(=O)NCCCc1ccc(OC)cc1`: the Ki came out at 860 nM.

The compound `CCC(=O)NCCCc1ccccc1OC` came in with an inhibitory constant (Ki) of 374 nM.

In the case of `CCC(=O)NCCCCc1ccc(OC)cc1`, the Ki came to 1400 nM.

As to `CCC(=O)NCCc1c[nH]c2ccc(OC)cc12`, the Ki stood at 0.19 nM.

Compound `CCCCC(=O)NCCc1cccc(OC)c1` yielded a Ki of 741 nM.

Turning to `CCC(=O)NCCCCc1ccccc1OC`, the Ki is recorded as 339 nM.

Consider `CCCC(=O)NCCCCc1cccc(OC)c1`, for which the Ki stood at 208 nM.

`CCCC(=O)NCCCCc1ccccc1OC` came in with a Ki of 116 nM.

Compound `CCC(=O)NCCc1cccc(OC)c1` gave a Ki of 62 nM.

For the compound `CCC(=O)NCCc1ccccc1OC`, the Ki stood at 135 nM.

Regarding `CCCC(=O)NCCCCc1ccc(OC)cc1`, the Ki is listed as 822 nM.

In the case of `CCC(=O)NCCCCc1cccc(OC)c1`, the Ki was determined as 119 nM.

`CCCCC(=O)NCCCCc1ccccc1OC` came in with a Ki of 9190 nM.

With `CCC(=O)NCCCc1cccc(F)c1`, the Ki is reported as 740 nM.

Regarding `COc1ccc(CCCCNC(C)=O)cc1`, the Ki is given as 7300 nM.

Compound `CCCC(=O)NCCCc1ccccc1OC` registered a Ki of 442 nM.

`CCCC(=O)NCCCc1cccc(Cl)c1` gave a Ki of 113 nM.

Regarding `CCCC(=O)NCCCc1cccc(OC)c1`, the Ki was 5.5 nM.

Regarding `COc1ccc(CCNC(C)=O)cc1OC`, the Ki is on record as 870 nM.

For the compound `CC(=O)NCCCc1cccc(Br)c1`, the Ki is listed as 852 nM.

The compound `CCC(=O)NCCCc1cccc(Br)c1` had a Ki of 318 nM.

`CCC(=O)NCc1cccc(OC)c1` gave a Ki of 22000 nM.

`CCCCC(=O)NCCc1ccc(OC)cc1` registered a Ki of 70800 nM.

For the compound `CCCC(=O)NCCc1ccc(OC)cc1`, the Ki came out at 17900 nM.

For `CCCC(=O)NCCc1ccc(OC)c(OC)c1`, the Ki is recorded as 59 nM.

Compound `CCCC(=O)NCCc1cccc(OC)c1` displayed a Ki of 40 nM.

The compound `CCCCC(=O)NCCCc1cccc(Cl)c1` registered a Ki of 15100 nM.

In turn, `COc1ccc2c(c1)c1c(n2C)CCCC1CNC(C)=O` (stereo unspecified) registered a Ki of 0.97 nM.
